ChEMBL document CHEMBL5375968, “Peptide TK-HR from the Skin of Chinese Folk Medicine Frog Hoplobatrachus Rugulosus Accelerates Wound Healing via the Activation of the Neurokinin-1 Receptor” (J Med Chem, 2023)
Blank lines part the entries; values can stand above or below the compound they belong to. Calls of active or inactive are those of the source. The rule behind the calls is not given here. Residues, ends and D or L forms follow the SMILES beside them.

Tests used:
Neutrophil [1] = assay: Induction of ROS production in BALB/c mouse neutrophils at 100 nM incubated for 2 hrs by DCFH-DA staining based analysis; assay type: functional, cell-based
[2] = Drug uptake in Aprepitant-treated BALB/c mouse neutrophils at 20 uM incubated for 30 mins by flow cytometry; assay type: ADME, cell-based; conditions: neutrophil, 0.5 h
[3] = Drug uptake in BALB/c mouse neutrophils by flow cytometry; assay type: ADME, cell-based; conditions: neutrophil, dose 2.5-40 µM
[4] = Drug uptake in mouse RAW264.7 cells by flow cytometry; assay type: ADME, cell-based; conditions: dose 2.5-40 µM
[5] = Drug uptake in Aprepitant-treated mouse RAW264.7 cells at 20 uM incubated for 30 mins by flow cytometry; assay type: ADME, cell-based; conditions: raw264.7, 0.5 h
HaCaT [6] = assay: Drug uptake in human HaCaT cells incubated for 30 mins by flow cytometry; assay type: functional, cell-based; conditions: dose 5-20 µM
HaCaT [7] = assay: Drug uptake in Aprepitant-treated human HaCaT cells 5 to 20 uM incubated for 30 mins by flow cytometry; assay type: functional, cell-based; conditions: dose 5-20 µM
[8] = Drug uptake in HUVEC cells incubated for 30 mins by flow cytometry; assay type: ADME, cell-based; conditions: human, 0.5 h, dose 5-20 µM
[9] = Drug uptake in Aprepitant-treated HUVEC cells at 5 to 20 uM incubated for 30 mins by flow cytometry; assay type: ADME, cell-based; conditions: human, 0.5 h, dose 5-20 µM
Neutrophil [10] = assay: Induction of chemotaxis in BALB/c mouse neutrophils assessed as increase in ratio of cell polarization at 100 nM measured for 15 mins by Zigmond-chamber based microscopy (reference value: 14.6 %); assay type: functional; conditions: 0.25 h

Structure (SMILES): CCCCCCCCCCCCCC(=O)O[C@@H]1[C@@H](C)[C@]2(O)[C@@H](C=C(CO)C[C@]3(O)C(=O)C(C)=C[C@@H]23)[C@@H]2C(C)(C)[C@]12OC(C)=O
Activity (Neutrophil [1]): Active

Drug uptake [2]: Not Active
Drug uptake [3]: Dose-Dependent Effect
Drug uptake [4]: Dose-Dependent Effect
Drug uptake [5]: Not Active
Drug uptake [8]: Dose-Dependent Effect
Drug uptake [9]: Not Active
Structure (SMILES): CSCC[C@H](NC(=O)[C@H](CC(C)C)NC(=O)CNC(=O)[C@H](Cc1ccc(O)cc1)NC(=O)[C@H](Cc1ccccc1)NC(=O)[C@H](CCCNC(=N)N)NC(=O)[C@H](CC(=O)O)NC(=O)[C@@H]1CCCN1C(=O)[C@H](CC(N)=O)NC(=O)[C@@H]1CCCN1C(=O)[C@H](CCCCN)NC(=S)Nc1ccc(-c2c3ccc(=O)cc-3oc3cc(O)ccc23)c(C(=O)O)c1)C(N)=O (HELM PEPTIDE1{[O=C(O)c1cc(NC(=S)[*:2])ccc1-c1c2ccc(=O)cc-2oc2cc(O)ccc12].K.P.N.P.D.R.F.Y.G.L.M.[am]}$$$$V2.0)
Drug uptake (HaCaT [6]): Dose-Dependent Effect
Drug uptake (HaCaT [7]): inactive

Structure (SMILES): CSCC[C@H](NC=O)C(=O)N[C@@H](CC(C)C)C(=O)N[C@@H](Cc1ccccc1)C(=O)O
Activity (Neutrophil [10]): 56.3%
